Reference: patent publication US6872195B2, “Chlorhexidine-containing medical devices” (The Trustees of Columbia University in the City of New York, priority 1996, dated 2005)

Key:
Staphylococcus aureus = experiment: One-minute kill in bacterial culture (colony counts); type: cell-based; settings: for CFU/ml (1 minute kill): TSB + 20% BCS, 10^7 CFU inoculum; for decrease in CFU: 500 micrograms per milliliter, 1 minute
Protocol: Various concentrations of chlorhexidine diacetate (“CHA”) and/or triclosan (“TC”) were dispensed in 1.0 ml trypticase soy broth (“TSB”) containing 20 percent bovine calf serum (“BCS”) and inoculated with 10^7 colony-forming units (“CFU”) of Staphylococcus aureus. After one minute, the cultures were diluted with drug-inactivating medium (1:100 dilution in LTSB drug inactivating medium, which is 5% Tween 80, 2% lecithin, 0.6% sodium oleate, 0.5% sodium thiosulfate, 0.1% protease peptone and 0.1% tryptone) and 0.2 ml of the diluted culture was subcultured on a trypticase soy agar plate for the determination of colony counts.

Solubility observation = type: physicochemical; settings: water or alcohol
Excerpt: When relatively soluble chlorhexidine salts such as chlorhexidine acetate (CHA) were used to impregnate catheters, the release was undesirably rapid. We investigated the use of CHX as a substitute for CHA.

SMILES | CFU/ml (1 minute kill) (Staphylococcus aureus; 250 μg/ml) | CFU/ml (1 minute kill) (Staphylococcus aureus; 500 μg/ml) | decrease in CFU (Staphylococcus aureus) | CFU/ml (1 minute kill) (Staphylococcus aureus; 1000 μg/ml) | CFU/ml (1 minute kill) (Staphylococcus aureus; 2000 μg/ml) | solubility (Solubility observation)
Oc1cc(Cl)ccc1Oc1ccc(Cl)cc1Cl [TC, 2,4,4′-trichloro-2′-hydroxydiphenyl ether] | 2.0 × 10^5 CFU/ml | 4.2 × 10^3 CFU/ml | approximately 2400 fold |  |  | 
CC(=O)O.CC(=O)O.NC(=N\CCCCCC/N=C(N)/N=C(\N)Nc1ccc(Cl)cc1)/N=C(\N)Nc1ccc(Cl)cc1 [CHA, chlorhexidine diacetate] |  | 6.0 × 10^5 CFU/ml | approximately 17 fold | 5.0 × 10^4 CFU/ml | 2.1 × 10^3 CFU/ml | 
N=C(NCCCCCCNC(=N)NC(=N)Nc1ccc(Cl)cc1)NC(=N)Nc1ccc(Cl)cc1 [CHX, chlorhexidine free base] |  |  |  |  |  | not soluble
